Data from ChEMBL document CHEMBL3885861, “Open TG-GATES”.

Organism: Rattus norvegicus
Test: Open TG-GATES - Regimen: Single
Format: toxicity, organism-based, Sprague-Dawley
Parameters: regimen Single, gender Male, age 6 weeks
Conditions: in vivo, po, 150 mg/kg, route gavage, dose level High; for APTT / Bas / Eos / Fbg / Hb / Ht / Lym / MCH / MCHC / MCV / Mono / Neu / PT / Plat / RBC / Ret / WBC: tissue Blood; for KIDNEY_L / KIDNEY_R / KIDNEY_TOTAL: tissue Kidney; for LIVER: tissue Liver; for A/G / ALP / ALT / AST / BUN / CRE / Ca / Cl / DBIL / GLC / IP / K / LDH / Na / PL / RALB / TBIL / TC / TG / TP / gamma-GTP: tissue Plasma

CN(C)CCC=C1c2ccccc2CCc2ccccc21 [AMITRIPTYLINE] was tested, and the TERMINAL_BW (3 h) was 193.9 g, the APTT (3 h) was 15.9 s and the Bas (3 h) was 0.2%. For the same molecule, the Eos (3 h) was 0.4%, the Fbg (3 h) was 285.6 mg/dL and the Hb (3 h) was 13.4 g/dL. The Ht (3 h) was 41.6%, the Lym (3 h) was 75% and the MCH (3 h) was 20.9 pg. For the same molecule, the MCHC (3 h) was 32.1%, the MCV (3 h) was 65 fL and the Mono (3 h) was 3.2%. For the same molecule, the Neu (3 h) was 20.4%, the PT (3 h) was 16 s and the Plat (3 h) was 120.6 x10_4/uL. The RBC (3 h) was 641.4 x10_4/ul, the Ret (3 h) was 9.3% and the WBC (3 h) was 71.3 x10_2/uL. It also gave a KIDNEY_L (3 h) of 0.9 g, a KIDNEY_R (3 h) of 0.9 g and a KIDNEY_TOTAL (3 h) of 1.7 g. It also gave an LIVER (3 h) of 8.5 g, an A/G (3 h) of 0.8 and an ALP (3 h) of 1527.2 IU/L. For the same molecule, the ALT (3 h) was 53.2 IU/L, the AST (3 h) was 74.6 IU/L and the BUN (3 h) was 7.8 mg/dL. It also gave a CRE (3 h) of 0.2 mg/dL, a Ca (3 h) of 10.9 mg/dL and a Cl (3 h) of 107.4 meq/L. It also gave a DBIL (3 h) of 0.006 mg/dL, a GLC (3 h) of 188 mg/dL and an IP (3 h) of 9.9 mg/dL. For the same molecule, the K (3 h) was 4.3 meq/L, the LDH (3 h) was 67.4 IU/L and the Na (3 h) was 145.6 meq/L. It also gave a PL (3 h) of 138.8 mg/dL, an RALB (3 h) of 2.5 g/dL and a TBIL (3 h) of 0.058 mg/dL. For the same molecule, the TC (3 h) was 77 mg/dL, the TG (3 h) was 40.6 mg/dL and the TP (3 h) was 5.5 g/dL. The gamma-GTP (3 h) was 0.8 IU/L, the TERMINAL_BW (6 h) was 191.7 g and the APTT (6 h) was 16.4 s. For the same molecule, the Bas (6 h) was 0%, the Eos (6 h) was 0.6% and the Fbg (6 h) was 273.8 mg/dL. For the same molecule, the Hb (6 h) was 12.7 g/dL, the Ht (6 h) was 39.3% and the Lym (6 h) was 74%. The MCH (6 h) was 20.9 pg, the MCHC (6 h) was 32.3% and the MCV (6 h) was 64.6 fL. It also gave a Mono (6 h) of 3.2%, a Neu (6 h) of 21.2% and a PT (6 h) of 15.7 s. It also gave a Plat (6 h) of 123.7 x10_4/uL, an RBC (6 h) of 610.2 x10_4/ul and a Ret (6 h) of 9.3%. The WBC (6 h) was 89.4 x10_2/uL, the KIDNEY_L (6 h) was 0.8 g and the KIDNEY_R (6 h) was 0.8 g. For the same molecule, the KIDNEY_TOTAL (6 h) was 1.6 g, the LIVER (6 h) was 7.8 g and the A/G (6 h) was 0.9. For the same molecule, the ALP (6 h) was 1508.6 IU/L, the ALT (6 h) was 50.4 IU/L and the AST (6 h) was 71 IU/L. It also gave a BUN (6 h) of 7.4 mg/dL, a CRE (6 h) of 0.1 mg/dL and a Ca (6 h) of 10.7 mg/dL. The Cl (6 h) was 108.2 meq/L, the DBIL (6 h) was 0.004 mg/dL and the GLC (6 h) was 179.6 mg/dL. For the same molecule, the IP (6 h) was 9.9 mg/dL, the K (6 h) was 4.4 meq/L and the LDH (6 h) was 57.4 IU/L. The Na (6 h) was 143.4 meq/L, the PL (6 h) was 149.6 mg/dL and the RALB (6 h) was 2.5 g/dL. For the same molecule, the TBIL (6 h) was 0.058 mg/dL, the TC (6 h) was 85.6 mg/dL and the TG (6 h) was 28.8 mg/dL. It also gave a TP (6 h) of 5.4 g/dL, a gamma-GTP (6 h) of 0.6 IU/L and a TERMINAL_BW (9 h) of 193.2 g. It also gave an APTT (9 h) of 15.6 s, a Bas (9 h) of 0% and an Eos (9 h) of 0.8%. It also gave a Fbg (9 h) of 305.8 mg/dL, a Hb (9 h) of 13.1 g/dL and a Ht (9 h) of 40.5%. For the same molecule, the Lym (9 h) was 65.4%, the MCH (9 h) was 21 pg and the MCHC (9 h) was 32.4%. For the same molecule, the MCV (9 h) was 64.8 fL, the Mono (9 h) was 2.6% and the Neu (9 h) was 30.2%. The PT (9 h) was 15.6 s, the Plat (9 h) was 125.8 x10_4/uL and the RBC (9 h) was 625.2 x10_4/ul. For the same molecule, the Ret (9 h) was 9.1%, the WBC (9 h) was 70.1 x10_2/uL and the KIDNEY_L (9 h) was 0.8 g. The KIDNEY_R (9 h) was 0.8 g, the KIDNEY_TOTAL (9 h) was 1.7 g and the LIVER (9 h) was 7.7 g. For the same molecule, the A/G (9 h) was 0.8, the ALP (9 h) was 1542.6 IU/L and the ALT (9 h) was 44.8 IU/L. It also gave an AST (9 h) of 68.6 IU/L, a BUN (9 h) of 7 mg/dL and a CRE (9 h) of 0.1 mg/dL. It also gave a Ca (9 h) of 10.8 mg/dL, a Cl (9 h) of 107 meq/L and a DBIL (9 h) of 0.01 mg/dL. For the same molecule, the GLC (9 h) was 193.4 mg/dL, the IP (9 h) was 10.7 mg/dL and the K (9 h) was 4.1 meq/L. It also gave an LDH (9 h) of 82.4 IU/L, a Na (9 h) of 143.4 meq/L and a PL (9 h) of 142 mg/dL. The RALB (9 h) was 2.5 g/dL, the TBIL (9 h) was 0.06 mg/dL and the TC (9 h) was 80.8 mg/dL. For the same molecule, the TG (9 h) was 42.2 mg/dL, the TP (9 h) was 5.5 g/dL and the gamma-GTP (9 h) was 1 IU/L. The TERMINAL_BW (24 h) was 191.9 g, the APTT (24 h) was 16.6 s and the Bas (24 h) was 0.2%. It also gave an Eos (24 h) of 1.2%, a Fbg (24 h) of 277.4 mg/dL and a Hb (24 h) of 13.6 g/dL. It also gave a Ht (24 h) of 41.4%, a Lym (24 h) of 80.4% and an MCH (24 h) of 20.9 pg. It also gave an MCHC (24 h) of 32.8%, an MCV (24 h) of 63.7 fL and a Mono (24 h) of 3%. It also gave a Neu (24 h) of 14.6%, a PT (24 h) of 17 s and a Plat (24 h) of 123.6 x10_4/uL. It also gave an RBC (24 h) of 649.6 x10_4/ul, a Ret (24 h) of 8.1% and a WBC (24 h) of 79.1 x10_2/uL. For the same molecule, the KIDNEY_L (24 h) was 0.9 g, the KIDNEY_R (24 h) was 0.9 g and the KIDNEY_TOTAL (24 h) was 1.8 g. The LIVER (24 h) was 7.6 g, the A/G (24 h) was 0.8 and the ALP (24 h) was 1505.6 IU/L. For the same molecule, the ALT (24 h) was 40.4 IU/L, the AST (24 h) was 63 IU/L and the BUN (24 h) was 13.8 mg/dL. For the same molecule, the CRE (24 h) was 0.2 mg/dL, the Ca (24 h) was 10.9 mg/dL and the Cl (24 h) was 105 meq/L. For the same molecule, the DBIL (24 h) was 0.016 mg/dL, the GLC (24 h) was 182.6 mg/dL and the IP (24 h) was 8.7 mg/dL. It also gave a K (24 h) of 4.4 meq/L, an LDH (24 h) of 58 IU/L and a Na (24 h) of 142.2 meq/L. It also gave a PL (24 h) of 133 mg/dL, an RALB (24 h) of 2.5 g/dL and a TBIL (24 h) of 0.062 mg/dL. It also gave a TC (24 h) of 78.8 mg/dL, a TG (24 h) of 47.8 mg/dL and a TP (24 h) of 5.6 g/dL. For the same molecule, the gamma-GTP (24 h) was 1 IU/L.
